Source: patent US8242111B2, “Cyclic inhibitors of 11β-hydroxysteroid dehydrogenase 1” (Vitae Pharmaceuticals, Inc., priority 2008, dated 2012)

What was measured:
[1] = target: T1, human 11β-HSD1 (Homo sapiens, UniProt P28845); assay: Biological Test Example 1: inhibition of a microsomal preparation of 11β-HSD1 (SPA); type: biochemical; details: for inhibition at 0.1 µM: read-out: Average % inhibition at 100 nM
T1 construct: expressed in transfected cells; host or cells: CHO cells (microsomes)

[2] = target: T1, human 11β-HSD1; assay: Biological Test Example 4: inhibition of microsomal 11β-HSD1 in the presence of 50% human plasma; type: biochemical; details: examples; for IC50: 50% human plasma; for Shift: IC50 in Biological Test Example 4 divided by IC50 in Biological Test Example 1
[3] = Biological Test Example 1, read-out: IC50 Range
[4] = Biological Test Example 1 IC50 (nM), examples
[5] = read-out: Biological Test Example 1 IC50, comparator compounds

T1 sequence (P28845 whole entry): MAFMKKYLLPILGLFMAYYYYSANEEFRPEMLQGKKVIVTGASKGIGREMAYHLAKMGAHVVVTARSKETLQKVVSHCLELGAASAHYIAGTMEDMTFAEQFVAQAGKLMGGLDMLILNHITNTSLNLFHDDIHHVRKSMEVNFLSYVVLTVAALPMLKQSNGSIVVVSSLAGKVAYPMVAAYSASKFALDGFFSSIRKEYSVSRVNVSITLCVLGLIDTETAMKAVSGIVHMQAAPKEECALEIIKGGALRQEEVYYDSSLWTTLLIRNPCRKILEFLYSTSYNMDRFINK

Molecule | IC50 [1, 3] [nM] | IC50 [1, 4] [nM] | inhibition at 0.1 µM [1] [%] | IC50 [2] [nM] | Shift [2] | IC50 [1, 5] [nM]
CC(C)(O)C[C@]1(c2ccccc2)CCN([C@H]2CCCN(c3ncccc3F)C2)C(=O)O1 [Example 1, (S)-3-((S)-1-(3-fluoropyridin-2-yl)piperidin-3-yl)-6-(2-hydroxy-2-methylpropyl)-6-phenyl-1,3-oxazinan-2-one] | < 100 | 12.7 | 85.5 | – | – | –
CC(C)(O)C[C@]1(c2ccccc2)CCN([C@H]2CCCN(c3ncccc3C(F)(F)F)C2)C(=O)O1 [Example 2, (S)-6-(2-hydroxy-2-methylpropyl)-6-phenyl-3-((S)-1-(3-(trifluoromethyl)pyridin-2-yl)piperidin-3-yl)-1,3-oxazinan-2-one] | < 100 | 22.6 | 77.8 | 210 | 9.3 | –
CC(C)(O)C[C@]1(c2ccccc2)CCN([C@H]2CCCN(c3cc(C(F)(F)F)ccn3)C2)C(=O)O1 [Example 3, (S)-6-(2-hydroxy-2-methylpropyl)-6-phenyl-3-((S)-1-(4-(trifluoromethyl)pyridin-2-yl)piperidin-3-yl)-1,3-oxazinan-2-one] | < 100 | 4.4 | 91.3 | 68.7 | 15.6 | –
CC(C)(O)C[C@]1(c2ccccc2)CCN([C@H]2CCCN(c3ccc(C(F)(F)F)cn3)C2)C(=O)O1 [Example 4, (S)-6-(2-hydroxy-2-methylpropyl)-6-phenyl-3-((S)-1-(5-(trifluoromethyl)Pyridin-2-yl)piperidin-3-yl)-1,3-oxazinan-2-one] | < 100 | 4.1 | 89.8 | 21.6 | 5.3 | –
CC(C)(O)C[C@]1(c2ccccc2)CCN([C@H]2CCCN(c3cccc(C(F)(F)F)n3)C2)C(=O)O1 [Example 5, (S)-6-(2-hydroxy-2-methylpropyl)-6-phenyl-3-((S)-1-(6-(trifluoromethyl)pyridin-2-yl)piperidin-3-yl)-1,3-oxazinan-2-one] | < 100 | 11.8 | 86 | – | – | –
CC(C)(O)C[C@]1(c2ccccc2)CCN([C@H]2CCCN(c3ncc(F)cn3)C2)C(=O)O1 [Example 7, (S)-3-((S)-1-(5-fluoropyrimidin-2-yl)piperidin-3-yl)-6-(2-hydroxy-2-methylpropyl)-6-phenyl-1,3-oxazinan-2-one] | < 100 | 6.1 | 89.5 | 14.8 | 2.4 | –
COc1cnc(N2CCC[C@H](N3CC[C@](CC(C)(C)O)(c4ccccc4)OC3=O)C2)nc1 [Example 12, (S)-6-(2-hydroxy-2-methylpropyl)-3-((S)-1-(5-methoxypyrimidin-2-yl)piperidin-3-yl)-6-phenyl-1,3-oxazinan-2-one] | < 100 | 4.3 | 91.7 | 10.4 | 2.4 | –
Cc1cnc(N2CCC[C@H](N3CC[C@](CC(C)(C)O)(c4ccccc4)OC3=O)C2)s1 [Example 13, (S)-6-(2-hydroxy-2-methylpropyl)-3-((S)-1-(5-methylthiazol-2-yl)piperidin-3-yl)-6-phenyl-1,3-oxazinan-2-one] | < 100 | 13.5 | 90.4 | – | – | –
CC(C)(O)C[C@]1(c2ccccc2)CCN([C@H]2CCCN(c3ncc(C(=O)NC(C)(C)C)s3)C2)C(=O)O1 [Example 21, N-tert-butyl-2-((S)-3-((S)-6-(2-hydroxy-2-methylpropyl)-2-oxo-6-phenyl-1,3-oxazinan-3-yl)piperidin-1-yl)thiazole-5-carboxamide] | 190 | > 100 | 27.3 | – | – | –
Cc1nnc(N2CCC[C@H](N3CC[C@](CC(C)(C)O)(c4ccccc4)OC3=O)C2)cc1Cl [Example 22, (S)-3-((S)-1-(5-chloro-6-methylpyridazin-3-yl)piperidin-3-yl)-6-(2-hydroxy-2-methylpropyl)-6-phenyl-1,3-oxazinan-2-one] | 190 | > 100 | 20.9 | – | – | –
(S)-3-((S)-1-(3-fluoropyridin-2-yl)piperidin-3-yl)-6-(2-hydroxy-2-methylpropyl)-6-phenyl-1,3-oxazinan-2-one [Example 1] | – | – | – | – | – | 0.77
(S)-6-(2-hydroxy-2-methylpropyl)-6-phenyl-3-((S)-1-(3-(trifluoromethyl)pyridin-2-yl)piperidin-3-yl)-1,3-oxazinan-2-one [Example 2] | – | – | – | – | – | 1.8
(S)-6-(2-hydroxy-2-methylpropyl)-6-phenyl-3-((S)-1-(6-(trifluoromethyl)pyridin-2-yl)piperidin-3-yl)-1,3-oxazinan-2-one [Example 5] | – | – | – | – | – | 0.51

More lines, now with the values ahead:

IC50 [1, 3] [nM] | IC50 [1, 4] [nM] | inhibition at 0.1 µM [1] [%] | IC50 [2] [nM] | Shift [2] | IC50 [1, 5] [nM] | Molecule
< 100 | 84.3 | 40.2 | – | – | – | Cc1cc(N2CCC[C@H](N3CC[C@](CC(C)(C)O)(c4ccccc4)OC3=O)C2)nc(C)n1 [Example 9, (S)-3-((S)-1-(2,6-dimethylpyrimidin-4-yl)piperidin-3-yl)-6-(2-hydroxy-2-methylpropyl)-6-phenyl-1,3-oxazinan-2-one]
< 100 | 5.5 | 85.8 | 69.2 | 12.7 | – | COC(=O)c1cnc(N2CCC[C@H](N3CC[C@](CC(C)(C)O)(c4ccccc4)OC3=O)C2)nc1 [Example 10]
< 100 | 19.1 | 75.3 | – | – | – | CC(C)(O)C[C@]1(c2ccccc2)CCN([C@H]2CCCN(c3ccnc(C(F)(F)F)n3)C2)C(=O)O1 [Example 11, (S)-6-(2-hydroxy-2-methylpropyl)-6-phenyl-3-((S)-1-(2-(trifluoromethyl)pyrimidin-4-yl)piperidin-3-yl)-1,3-oxazinan-2-one]
< 100 | 3.5 | 93.8 | 7.8 | 2.2 | – | CC(C)(O)C[C@]1(c2ccccc2)CCN([C@H]2CCN(c3ncc(Cl)cn3)C2)C(=O)O1 [Example 14, (S)-3-((S)-1-(5-chloropyrimidin-2-yl)pyrrolidin-3-yl)-6-(2-hydroxy-2-methylpropyl)-6-phenyl-1,3-oxazinan-2-one]
< 100 | 4.3 | 92.2 | 37.6 | 8.7 | – | CC(C)(O)C[C@]1(c2ccccc2)CCN([C@H]2CCN(c3ccc(C(F)(F)F)cn3)C2)C(=O)O1 [Example 15, (S)-6-(2-hydroxy-2-methylpropyl)-6-phenyl-3-((S)-1-(5-(trifluoromethyl)pyridin-2-yl)pyrrolidin-3-yl)-1,3-oxazinan-2-one]
< 100 | 1.4 | 94.9 | 14.4 | 10.0 | – | O=C1O[C@@](CCCO)(c2ccc(F)cc2)CCN1[C@H]1CCCN(c2ccc(C(F)(F)F)cn2)C1 [Example 16, (R)-6-(4-fluorophenyl)-6-(3-hydroxypropyl)-3-((S)-1-(5-(trifluoromethyl)pyridin-2-yl)piperidin-3-yl)-1,3-oxazinan-2-one]
< 100 | – | 94.7 | – | – | – | N#Cc1ccc(N2CCC[C@H](N3CC[C@](CCCO)(c4ccc(F)cc4)OC3=O)C2)nc1 [Example 17, 6((S)-3-((R)-6-(4-fluorophenyl)-6-(3-hydroxypropyl)-2-oxo-1,3-oxazinan-3-yl)piperidin-1-yl)nicotinonitrile]
< 100 | 26.4 | 81.6 | – | – | – | NC(=O)c1ccc(N2CCC[C@H](N3CC[C@](CCCO)(c4ccc(F)cc4)OC3=O)C2)nc1 [Example 18, 6-((S)-3-((R)-6-(4-fluorophenyl)-6-(3-hydroxypropyl)-2-oxo-1,3-oxazinan-3-yl)piperidin-1-yl)nicotinamide]
< 100 | 65.6 | 55.2 | – | – | – | CNC(=O)c1ccc(N2CCC[C@H](N3CC[C@](CCCO)(c4ccc(F)cc4)OC3=O)C2)nc1 [Example 19, 6-((S)-3-((R)-6-(4-fluorophenyl)-6-(3-hydroxypropyl)-2-oxo-1,3-oxazinan-3-yl)piperidin-1-yl)-N-methylnicotinamide]
< 100 | 27.4 | 72.5 | – | – | – | CN(C)C(=O)c1ccc(N2CCC[C@H](N3CC[C@](CCCO)(c4ccc(F)cc4)OC3=O)C2)nc1 [Example 20, 6-((S)-3-((R)-6-(4-fluorophenyl)-6-(3-hydroxpropyl)-2-oxo-1,3-oxazinan-3-yl)piperidin-1-yl)-N,N-dimethylnicotinamide]
< 100 | 5.8 | 94.1 | 52.8 | 9.2 | – | CC(C)(O)C[C@]1(c2ccccc2)CCN([C@H]2CCN(c3nccc(C(F)(F)F)n3)C2)C(=O)O1 [Example 23, (S)-6-(2-hydroxy-2-methylpropyl)-6-phenyl-3-((S)-1-(4-(trifluoromethyl)pyrimidin-2-yl)pyrrolidin-3-yl)-1,3-oxazinan-2-one]
< 100 | 42.3 | 67.8 | – | – | – | COc1cnc(N2CC[C@H](N3CC[C@](CC(C)(C)O)(c4ccccc4)OC3=O)C2)nc1 [Example 24, (S)-6-(2-hydroxy-2-methylpropyl)-3-((S)-1-(5-methoxypyrimidin-2-yl)pyrrolidin-3-yl)-6-phenyl-1,3-oxazinan-2-one]
– | – | – | – | – | 0.99 | (S)-3-((S)-1-(5-fluoropyrimidin-2-yl)piperidin-3-yl)-6-(2-hydroxy-2-methylpropyl)-6-phenyl-1,3-oxazinan-2-one [Example 7]
